The target of one experiment is SRSF protein kinase 1 (Homo sapiens, UniProt Q96SB4). Nature of the experiment: Selectivity interaction (Kinase panel (Z-LYTE Assay)) EUB0001632a SRPK1. To be noted: at 10 µM.
Experiment [1] deals with T1, Histone-arginine methyltransferase CARM1 (Homo sapiens, UniProt Q86X55).
T1 sequence (Q86X55 whole entry): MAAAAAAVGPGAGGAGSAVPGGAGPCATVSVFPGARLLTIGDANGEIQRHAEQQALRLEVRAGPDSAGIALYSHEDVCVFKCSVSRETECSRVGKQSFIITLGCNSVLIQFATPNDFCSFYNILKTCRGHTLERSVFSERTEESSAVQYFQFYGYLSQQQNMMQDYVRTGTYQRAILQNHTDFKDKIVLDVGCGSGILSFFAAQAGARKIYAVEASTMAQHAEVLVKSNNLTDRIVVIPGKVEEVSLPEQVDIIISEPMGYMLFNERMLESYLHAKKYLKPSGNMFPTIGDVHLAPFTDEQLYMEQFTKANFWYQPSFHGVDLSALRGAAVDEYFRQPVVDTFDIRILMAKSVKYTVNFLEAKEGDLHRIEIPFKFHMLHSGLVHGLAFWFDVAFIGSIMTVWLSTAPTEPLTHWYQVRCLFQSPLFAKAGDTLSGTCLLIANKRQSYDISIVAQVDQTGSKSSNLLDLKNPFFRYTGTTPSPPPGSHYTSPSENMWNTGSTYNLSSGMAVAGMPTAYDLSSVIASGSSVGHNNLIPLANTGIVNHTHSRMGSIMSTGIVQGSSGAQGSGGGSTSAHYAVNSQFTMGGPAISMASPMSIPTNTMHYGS
Nature of the experiment: Selectivity interaction (Western Blot (dimethylation of BAF155 (BAF155me2a/BAF155) in KMS-27 cells)) EUB0000255b CARM1. The class given is cell-based. A general note: A western blot detects proteins with antibodies after separation by electrophoresis.

Experiment [2] has as its target T2, Ephrin type-A receptor 1 (Homo sapiens) (UniProt P21709).
T2 sequence (whole entry): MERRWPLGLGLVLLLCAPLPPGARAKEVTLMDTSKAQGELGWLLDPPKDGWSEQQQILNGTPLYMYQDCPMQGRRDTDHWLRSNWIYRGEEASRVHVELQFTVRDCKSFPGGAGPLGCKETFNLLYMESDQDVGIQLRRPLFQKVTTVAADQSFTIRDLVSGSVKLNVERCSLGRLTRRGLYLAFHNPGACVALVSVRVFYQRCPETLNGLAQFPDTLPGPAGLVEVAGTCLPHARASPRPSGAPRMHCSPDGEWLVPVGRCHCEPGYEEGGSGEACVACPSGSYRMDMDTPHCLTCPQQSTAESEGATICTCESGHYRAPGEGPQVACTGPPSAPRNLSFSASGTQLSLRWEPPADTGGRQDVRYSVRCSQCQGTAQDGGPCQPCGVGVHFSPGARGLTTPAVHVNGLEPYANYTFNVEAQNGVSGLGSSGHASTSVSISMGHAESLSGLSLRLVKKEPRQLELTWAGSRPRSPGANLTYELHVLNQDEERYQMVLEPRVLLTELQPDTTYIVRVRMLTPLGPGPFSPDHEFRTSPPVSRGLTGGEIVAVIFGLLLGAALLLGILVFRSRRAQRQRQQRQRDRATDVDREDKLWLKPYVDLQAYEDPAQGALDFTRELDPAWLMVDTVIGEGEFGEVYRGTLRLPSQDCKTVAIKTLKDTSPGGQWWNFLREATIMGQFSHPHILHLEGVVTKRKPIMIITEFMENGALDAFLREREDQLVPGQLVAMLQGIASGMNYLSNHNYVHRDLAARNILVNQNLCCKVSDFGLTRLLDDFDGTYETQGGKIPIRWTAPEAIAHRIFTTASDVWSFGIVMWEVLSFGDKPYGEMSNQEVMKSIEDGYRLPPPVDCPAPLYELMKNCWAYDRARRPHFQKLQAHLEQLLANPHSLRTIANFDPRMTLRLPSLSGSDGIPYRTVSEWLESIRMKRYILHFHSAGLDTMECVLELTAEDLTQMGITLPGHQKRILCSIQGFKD
To be noted: at 10 µM.

Experiment [3] addresses T3, Phosphatidylinositol 4,5-bisphosphate 3-kinase catalytic subunit delta isoform (Homo sapiens) (UniProt O00329).
T3 sequence (whole entry): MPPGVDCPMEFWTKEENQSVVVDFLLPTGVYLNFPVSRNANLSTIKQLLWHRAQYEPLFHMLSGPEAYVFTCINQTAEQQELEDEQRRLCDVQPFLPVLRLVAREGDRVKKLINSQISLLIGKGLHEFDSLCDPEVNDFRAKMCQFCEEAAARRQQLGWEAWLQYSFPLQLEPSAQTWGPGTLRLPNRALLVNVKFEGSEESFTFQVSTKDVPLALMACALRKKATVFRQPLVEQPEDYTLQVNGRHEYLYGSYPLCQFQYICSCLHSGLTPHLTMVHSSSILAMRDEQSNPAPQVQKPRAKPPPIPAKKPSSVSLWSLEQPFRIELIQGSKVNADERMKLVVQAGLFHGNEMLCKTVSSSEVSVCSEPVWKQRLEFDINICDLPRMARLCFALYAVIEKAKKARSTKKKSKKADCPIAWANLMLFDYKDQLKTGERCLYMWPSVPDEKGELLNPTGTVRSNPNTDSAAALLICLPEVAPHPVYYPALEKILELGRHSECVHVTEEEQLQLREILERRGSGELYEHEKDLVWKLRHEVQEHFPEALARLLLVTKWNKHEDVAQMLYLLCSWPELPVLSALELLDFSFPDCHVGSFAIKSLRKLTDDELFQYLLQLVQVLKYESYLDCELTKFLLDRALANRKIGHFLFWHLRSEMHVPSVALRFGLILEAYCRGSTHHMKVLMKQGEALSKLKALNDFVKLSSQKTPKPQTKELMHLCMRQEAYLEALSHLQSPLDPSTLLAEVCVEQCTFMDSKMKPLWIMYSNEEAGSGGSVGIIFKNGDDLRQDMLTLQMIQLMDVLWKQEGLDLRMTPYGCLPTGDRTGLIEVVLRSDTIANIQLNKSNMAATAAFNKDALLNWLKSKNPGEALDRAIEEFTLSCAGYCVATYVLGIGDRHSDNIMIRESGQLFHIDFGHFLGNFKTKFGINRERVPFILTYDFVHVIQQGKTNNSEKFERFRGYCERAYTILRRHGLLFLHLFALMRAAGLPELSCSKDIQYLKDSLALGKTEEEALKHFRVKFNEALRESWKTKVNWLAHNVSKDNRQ
The experiment in a line: Selectivity interaction (ActivX KiNativ screen (kinase selectivity in THP-1 cell lysates)) EUB0000639a PIK3CD. In kind it is subcellular. To be noted: lysate, at 0.04 µM.

Bounds are passed on as bounds.

SRSF protein kinase 1, sequence (Q96SB4 whole entry): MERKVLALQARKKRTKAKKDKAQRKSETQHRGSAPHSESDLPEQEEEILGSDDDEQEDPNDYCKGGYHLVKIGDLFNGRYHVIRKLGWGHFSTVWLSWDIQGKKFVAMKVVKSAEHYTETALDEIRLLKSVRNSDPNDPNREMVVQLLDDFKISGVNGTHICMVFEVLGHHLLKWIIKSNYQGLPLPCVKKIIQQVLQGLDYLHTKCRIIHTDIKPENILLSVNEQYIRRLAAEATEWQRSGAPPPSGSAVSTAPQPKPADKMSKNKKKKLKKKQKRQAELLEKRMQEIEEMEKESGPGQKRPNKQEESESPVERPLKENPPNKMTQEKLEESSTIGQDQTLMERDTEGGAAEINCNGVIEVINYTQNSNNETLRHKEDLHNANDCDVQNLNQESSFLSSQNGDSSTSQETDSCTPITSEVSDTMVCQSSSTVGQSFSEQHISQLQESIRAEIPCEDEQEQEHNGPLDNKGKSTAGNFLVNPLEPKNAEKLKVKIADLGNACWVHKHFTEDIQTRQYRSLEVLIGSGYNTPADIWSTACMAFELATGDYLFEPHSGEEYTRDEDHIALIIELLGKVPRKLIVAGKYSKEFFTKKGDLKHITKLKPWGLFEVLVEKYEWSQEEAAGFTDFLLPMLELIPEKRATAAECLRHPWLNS

In turn, `Cn1cc(-n2cnc3c(NCc4nc5cc(Cl)c(Cl)cc5[nH]4)nc(N4CCOCC4)nc32)cn1` had a % of control on SRSF protein kinase 1 of 0.97%.
What is called IC50 is the concentration that inhibits the measured activity by half. `COCCN1CCC(c2cc(CN(C)C(=O)c3cccc(Oc4ccccc4)c3)ccn2)CC1` registered an IC50 in experiment [1] above 3 nM.
As to `Cc1cc([C@@H](C)Nc2ccccc2C(=O)O)c2nc(N3CCOCC3)cc(=O)n2c1` [AZD-6482], in experiment [2], the % of control stood at 100%.
`CC[C@@H]1[C@H](F)C(=O)N[C@@H]1COc1nccc2cc(C(N)=O)c(OC)cc12` [ZIMLOVISERTIB] registered a % of inhibition in experiment [3] of 3.5%.

For the origin of these results see ChEMBL document CHEMBL5465560, “Selectivity Literature for EUbOPEN Chemogenomic Library” (2024).
